In PMC6385358, “Discovery of ((1,2,4-oxadiazol-5-yl)pyrrolidin-3-yl)ureidyl derivatives as selective non-steroidal agonists of the G-protein coupled bile acid receptor-1” (Scientific Reports, 2019):

Assays:
Format in all cases: cell-based
FXR = molecular target: T1, FXR (Homo sapiens, UniProt Q96RI1); assay: Luciferase reporter specificity assay versus FXR on HepG2 cells; conditions: 10 μM
T1 construct: host or cells: HepG2
T1 sequence (Q96RI1 1-486): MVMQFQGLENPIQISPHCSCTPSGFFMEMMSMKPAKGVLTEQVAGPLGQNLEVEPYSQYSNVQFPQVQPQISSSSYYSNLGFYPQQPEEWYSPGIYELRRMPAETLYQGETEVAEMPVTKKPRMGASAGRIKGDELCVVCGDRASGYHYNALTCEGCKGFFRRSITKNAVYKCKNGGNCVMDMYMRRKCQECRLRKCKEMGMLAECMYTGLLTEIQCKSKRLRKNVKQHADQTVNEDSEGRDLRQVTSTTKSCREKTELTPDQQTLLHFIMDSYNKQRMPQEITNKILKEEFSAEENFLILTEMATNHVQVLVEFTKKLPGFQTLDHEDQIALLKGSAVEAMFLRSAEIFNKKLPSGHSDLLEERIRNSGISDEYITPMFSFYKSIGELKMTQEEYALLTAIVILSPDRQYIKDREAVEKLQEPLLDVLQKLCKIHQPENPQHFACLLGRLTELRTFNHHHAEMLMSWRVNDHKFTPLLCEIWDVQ
Description: (§1) The activity of compounds 1–14 on GPBAR1 was evaluated in a luciferase reporter assay using HEK-293T cells transfected with GPBAR1. The efficacy of tested compounds (Table 1) was measured using taurolithocholic acid (TLCA) as GPBAR1 reference compound[10],[11]. Each compound was tested at the concentration of 10 μM and transactivation activity of TLCA on a cAMP responsive element (CRE) (i.e. TGR5/GPBAR1) was considered equal to 100%. […] Thus, 9 and 10 (Table 1) turned out to be the most promising derivatives considering their low EC50 values and high activity efficacy. To further characterize the pharmacological properties of these compounds, we expanded their in vitro profile to common off-targets for bile acid receptor ligands.
(§2) Figure 3 (A) Dose response curves of compounds 9 and 10 (concentrations ranging from 1 to 50 µM) in luciferase reporter assay. (B) Real-time PCR analysis of mRNA expression of Pro-glucagon in GLUTag cells treated with compounds 9 and 10 at 10 μM, and TLCA used as a positive control (10 μM). Values are normalized to GAPDH and are expressed relative to those of not treated cells (NT) which are arbitrarily settled to 1. The relative mRNA expression is expressed as 2^(−ΔΔCt). […]
(§3) The specificity of compounds 9 and 10 versus PPARα, PPARγ, LXRα, LXRβ, FXR and PXR was determined in luciferase reporter gene assays as previously reported[29],[31].

PPARγ = molecular target: T2, PPARγ (Homo sapiens, UniProt P37231); assay: Luciferase reporter specificity assay versus PPARγ on HepG2 cells; conditions: 10 μM
T2 construct: host or cells: HepG2
T2 sequence (P37231 1-505): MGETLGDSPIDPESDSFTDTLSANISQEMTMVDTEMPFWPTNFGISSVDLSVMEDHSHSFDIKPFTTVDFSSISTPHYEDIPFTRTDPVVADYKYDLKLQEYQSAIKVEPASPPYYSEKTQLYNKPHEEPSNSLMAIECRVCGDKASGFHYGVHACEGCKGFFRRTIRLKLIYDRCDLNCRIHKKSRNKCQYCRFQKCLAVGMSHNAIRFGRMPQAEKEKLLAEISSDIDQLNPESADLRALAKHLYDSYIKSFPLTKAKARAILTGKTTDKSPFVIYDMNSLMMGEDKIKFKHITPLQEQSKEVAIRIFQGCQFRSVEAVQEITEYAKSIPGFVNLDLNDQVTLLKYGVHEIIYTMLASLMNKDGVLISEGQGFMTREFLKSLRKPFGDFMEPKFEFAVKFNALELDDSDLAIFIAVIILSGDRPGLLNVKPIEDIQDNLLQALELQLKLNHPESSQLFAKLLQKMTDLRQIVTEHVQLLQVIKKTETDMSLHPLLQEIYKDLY
Description: as §1, §2, §3

PXR = molecular target: T3, PXR (Homo sapiens, UniProt O75469); assay: Luciferase reporter specificity assay versus PXR on HepG2 cells; conditions: 10 μM
T3 construct: host or cells: HepG2
T3 sequence (O75469 1-434): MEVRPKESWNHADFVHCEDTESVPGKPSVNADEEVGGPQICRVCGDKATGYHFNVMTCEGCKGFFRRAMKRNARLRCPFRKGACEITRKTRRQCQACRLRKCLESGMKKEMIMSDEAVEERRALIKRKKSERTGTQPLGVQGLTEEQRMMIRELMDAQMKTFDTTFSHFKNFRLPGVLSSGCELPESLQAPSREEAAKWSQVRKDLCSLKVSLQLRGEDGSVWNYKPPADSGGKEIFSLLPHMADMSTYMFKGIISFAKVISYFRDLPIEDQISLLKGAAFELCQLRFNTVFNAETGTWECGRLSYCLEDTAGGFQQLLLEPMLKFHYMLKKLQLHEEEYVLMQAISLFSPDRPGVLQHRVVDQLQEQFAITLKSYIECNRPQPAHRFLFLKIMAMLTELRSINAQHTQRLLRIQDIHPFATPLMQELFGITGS
Description: as §1, §2, §3

GPBAR1 = molecular target: T4, GPBAR1 (Homo sapiens, UniProt Q8TDU6); assay: Luciferase reporter (CRE) transactivation assay in HEK-293T cells transfected with GPBAR1; conditions: dose response 1 to 50 µM, HEK-293T transfected with GPBAR1
T4 construct: expressed in transfected cells; host or cells: HEK-293T
T4 sequence (Q8TDU6 1-330): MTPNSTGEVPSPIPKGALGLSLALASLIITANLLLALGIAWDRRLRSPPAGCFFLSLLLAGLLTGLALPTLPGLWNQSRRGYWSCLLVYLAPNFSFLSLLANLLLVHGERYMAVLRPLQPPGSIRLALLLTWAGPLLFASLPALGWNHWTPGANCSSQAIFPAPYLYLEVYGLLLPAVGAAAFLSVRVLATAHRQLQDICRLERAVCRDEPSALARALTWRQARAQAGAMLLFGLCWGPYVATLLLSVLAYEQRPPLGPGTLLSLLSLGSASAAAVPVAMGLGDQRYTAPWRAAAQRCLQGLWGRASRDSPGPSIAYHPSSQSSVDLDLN
Description: as §1
Transactivation assay on HEK-293T cells was performed to investigate GPBAR1 activation, using compound 1–14 and TLCA as positive control at 10 µM, as previously reported.
Supplementary Figure S4. HEK-293T cells were transiently transfected with GPBAR1 and a reporter gene containing a cAMP responsive element in front of the luciferase gene. Cells were stimulated with compounds A-L (10 μM). TLCA (10 μM) was used as positive control. Luciferase activity served as a measure of the rise in intracellular cAMP following activation of GPBAR1. In all panels, results are expressed as mean ± standard error. ^∗p < 0.05 versus not treated cells (NT).

Row | FXR transactivation (FXR) | PPARγ transactivation (PPARγ) | PXR transactivation (PXR) | EC50 (GPBAR1) [µM] | Compound
1 | unable to induce | unable to induce | unable to induce | 3.5 | O=C(Nc1ccc(Cl)cc1)N[C@@H]1CN[C@H](c2nc(-c3ccccc3)no2)C1 [Compound 9]
2 | unable to induce | unable to induce | unable to induce | 4.6 | O=C(NC1CCCCC1)N[C@@H]1CN[C@H](c2nc(-c3ccccc3)no2)C1 [Compound 10]
